In PubChem BioAssay (NCI):
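Protocol summary: plate cells (96-well), add compound at 5 concentrations, incubate 48 h, interpolate endpoints linearly. TGI is the concentration that stops growth completely.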

Tests used:
Experiment in all cases: growth of human tumour cells (NCI), 48 h
[1] = test system: NCI-H23 lung
[2] = test system: HL-60(TB) leukemia
[3] = test system: EKVX NSCLC
[4] = test system: SF-268 CNS
[5] = test system: OVCAR-3 ovarian
[6] = test system: HCT-116 colon
[7] = test system: HCC-2998 colon
[8] = test system: DMS 114 small cell lung
[9] = test system: SR leukemia
[10] = test system: IGROV1 ovarian
[11] = test system: A549 NSCLC
[12] = test system: SK-MEL-5 melanoma
[13] = test system: SK-OV-3 ovarian
[14] = test system: SW-620 colon
[15] = test system: SN12C renal
[16] = test system: ACHN renal
[17] = test system: LXFL 529 NSCLC
[18] = test system: NCI-H226 lung
[19] = test system: SF-295 CNS
[20] = test system: OVCAR-4 ovarian
[21] = test system: SK-MEL-28 melanoma
[22] = test system: CCRF-CEM leukemia
[23] = test system: 786-0 renal
[24] = test system: SNB-19 CNS
[25] = test system: CAKI-1 renal
[26] = test system: OVCAR-8 ovarian
[27] = test system: RXF-631 renal
[28] = test system: LOX IMVI melanoma
[29] = test system: M19-MEL melanoma
[30] = test system: NCI-H460 lung
[31] = test system: HOP-92 NSCLC
[32] = test system: SF-539 CNS
[33] = test system: TK-10 renal
[34] = test system: U251 CNS
[35] = test system: DMS 273 small cell lung
[36] = test system: K-562 leukemia
[37] = test system: SK-MEL-2 melanoma
[38] = test system: A498 renal
[39] = test system: MALME-3M melanoma
[40] = test system: KM20L2 colon
[41] = test system: M14 melanoma
[42] = test system: UACC-257 melanoma
[43] = test system: HT29 colon
[44] = test system: RXF 393 renal
[45] = test system: HOP-62 NSCLC
[46] = test system: KM12 colon
[47] = test system: NCI-H522 lung
[48] = test system: COLO 205 colon
[49] = test system: UO-31 renal
[50] = test system: UACC-62 melanoma
[51] = test system: MOLT-4 leukemia
[52] = test system: HCT-15 colon
[53] = test system: SNB-78 CNS
[54] = test system: HOP-18 NSCLC
[55] = test system: DLD-1 colon
[56] = test system: SNB-75 CNS
[57] = test system: XF 498 CNS
[58] = test system: RPMI-8226 leukemia
[59] = test system: OVCAR-5 ovarian

O=C1CCC(c2nc3ccccc3o2)C(=O)N1 (stereo not drawn)
TGI [1]: > 100 µM
TGI [2]: > 100 µM
TGI [3]: > 100 µM
TGI [4]: > 100 µM
TGI [5]: > 100 µM
TGI [6]: > 100 µM
TGI [7]: > 100 µM
TGI [8]: > 100 µM
TGI [9]: > 100 µM
TGI [10]: > 100 µM
TGI [11]: > 100 µM
TGI [12]: > 100 µM
TGI [13]: > 100 µM
TGI [14]: > 100 µM
TGI [15]: > 100 µM
TGI [16]: > 100 µM
TGI [17]: > 100 µM
TGI [18]: > 100 µM
TGI [19]: > 100 µM
TGI [20]: > 100 µM
TGI [21]: > 100 µM
TGI [22]: > 100 µM
TGI [23]: > 100 µM
TGI [24]: > 100 µM
TGI [25]: > 100 µM
TGI [26]: > 100 µM
TGI [27]: > 100 µM
TGI [28]: > 100 µM
TGI [29]: > 100 µM
TGI [30]: > 100 µM
TGI [31]: > 100 µM
TGI [32]: > 100 µM
TGI [33]: > 100 µM
TGI [34]: > 100 µM
TGI [35]: > 100 µM
TGI [36]: > 100 µM
TGI [37]: > 100 µM
TGI [38]: > 100 µM
TGI [39]: > 100 µM
TGI [40]: > 100 µM
TGI [41]: > 100 µM
TGI [42]: > 100 µM
TGI [43]: > 100 µM
TGI [44]: > 100 µM
TGI [45]: > 100 µM
TGI [46]: > 100 µM
TGI [47]: > 100 µM
TGI [48]: > 100 µM
TGI [49]: > 100 µM
TGI [50]: > 100 µM
TGI [51]: > 100 µM
TGI [52]: > 100 µM
TGI [53]: > 100 µM
TGI [54]: > 100 µM
TGI [55]: > 100 µM
TGI [56]: > 100 µM

C1=CCN(c2ccccc2)CC1
TGI [1]: > 100 µM
TGI [2]: 90.1 µM
TGI [3]: > 100 µM
TGI [4]: > 100 µM
TGI [5]: 61.2 µM
TGI [6]: > 100 µM
TGI [7]: > 100 µM
TGI [8]: > 100 µM
TGI [9]: > 100 µM
TGI [10]: 96.3 µM
TGI [11]: > 100 µM
TGI [12]: > 100 µM
TGI [13]: > 100 µM
TGI [14]: 47.3 µM
TGI [15]: 87 µM
TGI [16]: 56.8 µM
TGI [17]: 43.3 µM
TGI [19]: > 100 µM
TGI [21]: 73.9 µM
TGI [22]: > 100 µM
TGI [24]: > 100 µM
TGI [26]: 81.2 µM
TGI [57]: 40.6 µM
TGI [27]: > 100 µM
TGI [28]: > 100 µM
TGI [30]: > 100 µM
TGI [31]: 61.6 µM
TGI [32]: > 100 µM
TGI [33]: > 100 µM
TGI [58]: > 100 µM
TGI [34]: > 100 µM
TGI [35]: > 100 µM
TGI [36]: > 100 µM
TGI [37]: > 100 µM
TGI [38]: > 100 µM
TGI [39]: 46.8 µM
TGI [40]: > 100 µM
TGI [41]: 44.8 µM
TGI [59]: > 100 µM
TGI [42]: > 100 µM
TGI [43]: 87.3 µM
TGI [44]: 35.7 µM
TGI [46]: > 100 µM
TGI [47]: 30.4 µM
TGI [48]: > 100 µM
TGI [49]: > 100 µM
TGI [50]: > 100 µM
TGI [51]: > 100 µM
TGI [52]: 47.1 µM
TGI [53]: > 100 µM
TGI [54]: > 100 µM
TGI [55]: > 100 µM
TGI [56]: > 100 µM

C/C(=N\NC(N)=S)c1ccc(/C(C)=N/NC(N)=S)cc1
TGI [1]: > 100 µM
TGI [2]: > 100 µM
TGI [3]: > 100 µM
TGI [4]: > 100 µM
TGI [5]: > 100 µM
TGI [6]: > 100 µM
TGI [7]: > 100 µM
TGI [8]: > 100 µM
TGI [9]: > 100 µM
TGI [10]: > 100 µM
TGI [11]: > 100 µM
TGI [12]: > 100 µM
TGI [13]: > 100 µM
TGI [14]: > 100 µM
TGI [15]: > 100 µM
TGI [16]: > 100 µM
TGI [17]: > 100 µM
TGI [18]: > 100 µM
TGI [19]: > 100 µM
TGI [21]: > 100 µM
TGI [22]: > 100 µM
TGI [23]: > 100 µM
TGI [24]: > 100 µM
TGI [26]: > 100 µM
TGI [57]: > 100 µM
TGI [27]: > 100 µM
TGI [28]: > 100 µM
TGI [29]: > 100 µM
TGI [30]: > 100 µM
TGI [31]: > 100 µM
TGI [32]: > 100 µM
TGI [33]: > 100 µM
TGI [58]: > 100 µM
TGI [34]: > 100 µM
TGI [36]: > 100 µM
TGI [38]: > 100 µM
TGI [39]: > 100 µM
TGI [40]: > 100 µM
TGI [41]: > 100 µM
TGI [59]: > 100 µM
TGI [42]: > 100 µM
TGI [43]: > 100 µM
TGI [44]: > 100 µM
TGI [45]: > 100 µM
TGI [46]: > 100 µM
TGI [47]: > 100 µM
TGI [48]: > 100 µM
TGI [49]: > 100 µM
TGI [50]: > 100 µM
TGI [51]: > 100 µM
TGI [52]: > 100 µM
TGI [54]: > 100 µM
TGI [55]: > 100 µM
TGI [56]: > 100 µM

Cc1nc2ccccc2nc1NS(=O)(=O)c1ccc(N)cc1
TGI [1]: > 100 µM
TGI [2]: > 100 µM
TGI [3]: > 100 µM
TGI [4]: > 100 µM
TGI [5]: > 100 µM
TGI [7]: > 100 µM
TGI [9]: > 100 µM
TGI [10]: > 100 µM
TGI [11]: > 100 µM
TGI [12]: > 100 µM
TGI [14]: > 100 µM
TGI [15]: > 100 µM
TGI [16]: > 100 µM
TGI [17]: > 100 µM
TGI [18]: > 100 µM
TGI [19]: > 100 µM
TGI [20]: > 100 µM
TGI [21]: > 100 µM
TGI [22]: > 100 µM
TGI [23]: > 100 µM
TGI [24]: > 100 µM
TGI [25]: > 100 µM
TGI [26]: > 100 µM
TGI [57]: > 100 µM
TGI [27]: > 100 µM
TGI [28]: > 100 µM
TGI [29]: > 100 µM
TGI [31]: > 100 µM
TGI [32]: > 100 µM
TGI [33]: > 100 µM
TGI [58]: > 100 µM
TGI [34]: > 100 µM
TGI [35]: > 100 µM
TGI [36]: > 100 µM
TGI [37]: > 100 µM
TGI [38]: > 100 µM
TGI [39]: > 100 µM
TGI [40]: > 100 µM
TGI [41]: > 100 µM
TGI [59]: > 100 µM
TGI [42]: > 100 µM
TGI [43]: > 100 µM
TGI [44]: > 100 µM
TGI [45]: > 100 µM
TGI [46]: > 100 µM
TGI [47]: > 100 µM
TGI [48]: > 100 µM
TGI [49]: > 100 µM
TGI [50]: > 100 µM
TGI [51]: > 100 µM
TGI [52]: > 100 µM
TGI [53]: > 100 µM
TGI [54]: > 100 µM
TGI [55]: > 100 µM
TGI [56]: > 100 µM
